According to ChEMBL document CHEMBL1201862, “PubChem BioAssay data set” (2004):
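Tested at 5 concentrations; 48 h exposure; 96-well plates; endpoints linearly interpolated, else capped at highest concentration. Here, GI50 denotes the concentration required for 50% inhibition of growth.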 The source made the active and inactive calls. Rule as the data show it: active = GI50 up to about 1.1 µM and inactive = higher. Residues, ends and D or L forms follow the SMILES beside them.

Legend:
Assay in all cases: NCI-60 cell line screen, 48 h
UO-31 = tested on: UO-31
K562 = tested on: K562
HOP-92 = tested on: HOP-92
M14 = tested on: M14
HT-29 = tested on: HT-29
MDA-MB-435 = tested on: MDA-MB-435
NCI-H522 = tested on: NCI-H522
CAKI-1 = tested on: CAKI-1
SF-295 = tested on: SF-295
HL-60 = tested on: HL-60
SNB-19 = tested on: SNB-19
NCI-H23 = tested on: NCI-H23
PC-3 = tested on: PC-3
UACC-62 = tested on: UACC-62
COLO 205 = tested on: COLO 205
SK-MEL-28 = tested on: SK-MEL-28
MOLT-4 = tested on: MOLT-4
BT-549 = tested on: BT-549
TK-10 = tested on: TK-10
SF-268 = tested on: SF-268
SK-MEL-2 = tested on: SK-MEL-2
MDA-MB-231 = tested on: MDA-MB-231
SK-MEL-5 = tested on: SK-MEL-5
OVCAR-4 = tested on: OVCAR-4
OVCAR-5 = tested on: OVCAR-5
MDA-N = tested on: MDA-N
NCI/ADR-RES = tested on: NCI/ADR-RES
KM12 = tested on: KM12
EKVX = tested on: EKVX
MCF7 = tested on: MCF7
SR = tested on: SR
T47D = tested on: T47D
OVCAR-8 = tested on: OVCAR-8
SN12C = tested on: SN12C
SW-620 = tested on: SW-620
UACC-257 = tested on: UACC-257
IGROV-1 = tested on: IGROV-1
HCT-15 = tested on: HCT-15
SF-539 = tested on: SF-539
OVCAR-3 = tested on: OVCAR-3
A549 = tested on: A549
A498 = tested on: A498
LOX IMVI = tested on: LOX IMVI
HOP-62 = tested on: HOP-62
NCI-H226 = tested on: NCI-H226
786-0 = tested on: 786-0
Hs-578T = tested on: Hs-578T
U-251 = tested on: U-251
HCT-116 = tested on: HCT-116
ACHN = tested on: ACHN
SK-OV-3 = tested on: SK-OV-3
CCRF-CEM = tested on: CCRF-CEM
DU-145 = tested on: DU-145
RPMI-8226 = tested on: RPMI-8226
Malme-3M = tested on: Malme-3M

In the case of `CCC(C)C(NC(=O)C(CC(C)C)NC(=O)CNC(=O)C(NC(=O)C1CCCN1C(=O)C(CC(C)C)NC(=O)C(N)Cc1ccccc1)C(C)CC)C(=O)NC(CC(C)C)C(N)=O` (stereo not given) (H-FLPIGLIL-NH2; configuration not given here), the GI50 (UO-31) is reported as > 75 µM (inactive), the GI50 (K562) is reported as > 75 µM (inactive) and the GI50 (HOP-92) is reported as > 75 µM (inactive). The GI50 (M14) was > 75 µM (inactive), the GI50 (HT-29) was > 75 µM (inactive) and the GI50 (MDA-MB-435) was > 75 µM (inactive). For the same compound, the GI50 (NCI-H522) was > 75 µM (inactive), the GI50 (CAKI-1) was > 75 µM (inactive) and the GI50 (SF-295) was > 75 µM (inactive). The GI50 (HL-60) was > 75 µM (inactive), the GI50 (SNB-19) was > 75 µM (inactive) and the GI50 (NCI-H23) was > 75 µM (inactive). For the same compound, the GI50 (PC-3) was > 75 µM (inactive), the GI50 (UACC-62) was > 75 µM (inactive) and the GI50 (COLO 205) was > 75 µM (inactive). The GI50 (SK-MEL-28) was > 75 µM (inactive), the GI50 (MOLT-4) was > 75 µM (inactive) and the GI50 (BT-549) was > 75 µM (inactive). For the same compound, the GI50 (TK-10) was > 75 µM (inactive), the GI50 (SF-268) was > 75 µM (inactive) and the GI50 (SK-MEL-2) was > 75 µM (inactive). For the same compound, the GI50 (MDA-MB-231) was > 75 µM (inactive), the GI50 (SK-MEL-5) was > 75 µM (inactive) and the GI50 (OVCAR-4) was > 75 µM (inactive). For the same compound, the GI50 (OVCAR-5) was > 75 µM (inactive), the GI50 (MDA-N) was > 75 µM (inactive) and the GI50 (NCI/ADR-RES) was > 75 µM (inactive). For the same compound, the GI50 (KM12) was > 75 µM (inactive), the GI50 (EKVX) was > 75 µM (inactive) and the GI50 (MCF7) was > 75 µM (inactive). For the same compound, the GI50 (SR) was > 75 µM (inactive), the GI50 (T47D) was > 75 µM (inactive) and the GI50 (OVCAR-8) was > 75 µM (inactive). For the same compound, the GI50 (SN12C) was > 75 µM (inactive), the GI50 (SW-620) was > 75 µM (inactive) and the GI50 (UACC-257) was > 75 µM (inactive). For the same compound, the GI50 (IGROV-1) was > 75 µM (inactive), the GI50 (HCT-15) was > 75 µM and the GI50 (SF-539) was > 75 µM (inactive). For the same compound, the GI50 (OVCAR-3) was > 75 µM (inactive), the GI50 (A549) was > 75 µM (inactive) and the GI50 (A498) was > 75 µM (inactive). The GI50 (LOX IMVI) was > 75 µM (inactive), the GI50 (HOP-62) was > 75 µM (inactive) and the GI50 (NCI-H226) was > 75 µM (inactive). The GI50 (786-0) was > 75 µM (inactive), the GI50 (Hs-578T) was > 75 µM (inactive) and the GI50 (U-251) was > 75 µM (inactive). For the same compound, the GI50 (HCT-116) was > 75 µM (inactive), the GI50 (ACHN) was > 75 µM (inactive) and the GI50 (SK-OV-3) was > 75 µM (inactive). The GI50 (CCRF-CEM) was > 75 µM (inactive), the GI50 (DU-145) was > 75 µM (inactive) and the GI50 (RPMI-8226) was > 75 µM (inactive). The GI50 (Malme-3M) was > 75 µM (inactive).
